Columns and labels:
GRPR = biological target: T1, GRPR (Homo sapiens, UniProt P30550); assay: In vitro competitive binding assay against [^125I]I-Tyr^4-BBN; IC50 determination; conditions: PC-3 cells
T1 construct: investigated using GRPR-expressing PC-3 cells; endogenous in cells; host or cells: PC-3 cells
Method: The half maximal inhibitory concentration (IC50) was determined for F-MeTz-PEG2-RM2 (8b), Ga-loaded NOTA-PEG2-RM26 (Varasteh et al. [2013b], [2015]) conjugate was used as a comparator. […] Briefly, 10^5 cells were incubated the day before. […] After incubation, the cells were collected, and their activity was measured.

[1] = biological target: T2, GRPR-expressing PC-3 cells (Homo sapiens, UniProt P30550); assay: In vitro binding to GRPR with and without preblocking of GRPR; type: cell-based; conditions: 8–10 nM radioligand, 1 h at 37 °C, preblocking with 1 µM NOTA-PEG2-RM26 for 10 min at rt, n = 3, P < 0.0001
T2 construct: investigated using GRPR-expressing PC-3 cells; endogenous in cells; host or cells: PC-3 cells
Method: PC-3 cells (1 × 10^6 cells/well) were seeded on 6-well dishes one day before the experiment. On the day of the experiment, a set of wells was incubated with 1 µM/well of NOTA-PEG2-RM26 for 10 min at rt to block GRPR. After incubation, 8–10 nM (1.2–17.5 kBq) of [^18F]MeTz-PEG2-RM26 (8a) was added to the pretreated and non-treated wells, and the cells were incubated for 1 h at 37 °C. Thereafter, cells were detached using trypsin-EDTA (ethylenediaminetetraacetic acid), collected, and measured for their radioactivity content. The internalisation assay was done after 1 h of incubation as previously described (Varasteh et al. [2013b]).

[2] = Method: [^18F]MeTz-TCO-PEG2-RM26 (8a) (330 pmol, 1.2 MBq) was added and the tube was vortexed for 2 min. The tube was centrifuged for 20 s to separate the phases. Fractions of each phase were collected and the radioactivity content was measured.
in vivo = conditions: mouse, total radioactivity; for tissue uptake at 1 h / tissue uptake at 2 h / tissue to tissue ratio at 1 h / tissue to tissue ratio at 2 h: Balb/c nu/nu, 48 pmol; for tissue uptake dose at 0.5 h / tissue uptake at 0.5 h: NMRI; for tissue uptake at 0.5 h: NMRI mice, 30 min pi
Method: (§1) [^18F]MeTz-PEG2-RM26 (8a) (30 kBq, 40 pmol) was evaluated in NMRI mice to assess the biodistribution in normal organs. A group of NMRI mice (n = 3) was additionally co-injected with 5 nmol of NOTA-PEG2-RM26 to block GRPR. Mice were euthanised at 30 min post-injection (pi) and the organs of interest were collected, weighed, and measured for their radioactivity content. Further, Balb/c nu/nu mice (4 mice in each group) were used to evaluate the uptake in normal organs and the GRPR-expressing tumour model (PC-3). In short, 7 × 10^6 freshly harvested PC-3 cells were suspended in 100 µl sterile PBS and were implanted subcutaneously at the right hind leg of each mouse. […] [^18F]MeTz-PEG2-RM26 (8a) (120 kBq, 48 pmol) was injected and mice were euthanised at predetermined time points of 1 and 2 h pi. An additional group was co-injected with 5 nmol of NOTA-PEG2-RM26 to block GRPR and was euthanized at 2 h pi. The collected organs were weighed and the radioactivity content was measured in each organ.

[3] = tested on: GRPR-expressing PC-3 xenografts; assay: in vivo; conditions: PC-3 xenografted Balb/c nu/nu mice, 2 h pi, blocked: co-injected with 5 nmol NOTA-PEG2-RM26, mean ± SD, n = 4
Method: as §1

NMRI mice = assay: in vivo
Method: as §1

[4] = NMRI mice, 30 min pi, 40 pmol (30 kBq), non-blocked, mean ± SD, n = 3–4

T1 sequence (P30550 whole entry): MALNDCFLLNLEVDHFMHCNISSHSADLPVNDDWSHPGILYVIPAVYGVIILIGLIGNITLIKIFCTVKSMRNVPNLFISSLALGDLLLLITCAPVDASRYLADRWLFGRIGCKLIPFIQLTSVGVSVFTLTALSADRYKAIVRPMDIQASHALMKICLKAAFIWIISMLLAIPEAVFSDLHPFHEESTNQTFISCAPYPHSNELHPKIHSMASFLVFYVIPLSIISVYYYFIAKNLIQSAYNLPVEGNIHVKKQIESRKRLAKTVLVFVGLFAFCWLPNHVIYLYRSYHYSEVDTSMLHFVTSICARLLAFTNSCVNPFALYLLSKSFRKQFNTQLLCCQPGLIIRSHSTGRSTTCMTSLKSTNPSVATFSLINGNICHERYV
T2 sequence (P30550 whole entry): as above

CC1=NNC(c2ccc(CNC(=O)c3ccc(F)nc3)cc2)=C2CCC[C@H](OC(=O)NCCOCCOCCC(=O)N[C@H](Cc3ccccc3)C(=O)N[C@@H](CCC(N)=O)C(=O)N[C@@H](Cc3c[nH]c4ccccc34)C(=O)N[C@@H](C)C(=O)N[C@H](C(=O)NCC(=O)N[C@@H](Cc3c[nH]cn3)C(=O)N[C@@H](CC(C)C)[C@@H](O)CC(=O)N[C@@H](CC(C)C)C(N)=O)C(C)C)CCC12 (stereo partly drawn) [8b]
decrease in binding affinity versus Ga-NOTA-PEG2-RM26 (IC50 ratio) (GRPR): 6.8 fold

CC1=NNC(c2ccc(CNC(=O)c3ccc(F)nc3)cc2)=C2CCC[C@H](OC(=O)NCCOCCOCCC(=O)N[C@H](Cc3ccccc3)C(=O)N[C@@H](CCC(N)=O)C(=O)N[C@@H](Cc3c[nH]c4ccccc34)C(=O)N[C@@H](C)C(=O)N[C@H](C(=O)NCC(=O)N[C@@H](Cc3c[nH]cn3)C(=O)N[C@@H](CC(C)C)[C@@H](O)CC(=O)N[C@@H](CC(C)C)C(N)=O)C(C)C)CCC12 (stereo partly drawn) [8a]
activity uptake upon target saturation (GRPR specificity) [1]: statistically significant reduction of activity uptake upon target saturation
logP [2]: 1.6 ± 0.2
tissue uptake at 1 h (in vivo; blood): 2.5 ± 0.4 %ID/g
tissue uptake at 2 h (in vivo; blood): 1.8 ± 0.6 %ID/g
tissue uptake at 1 h (in vivo; bone): 0.8 ± 0.2 %ID/g
tissue uptake at 2 h (in vivo; bone): 0.6 ± 0.04 %ID/g
tissue uptake at 1 h (in vivo; kidneys): 2.4 ± 0.1 %ID/g
tissue uptake at 2 h (in vivo; kidneys): 1.9 ± 0.7 %ID/g
tissue uptake at 1 h (in vivo; liver): 12 ± 2 %ID/g
tissue uptake at 2 h (in vivo; liver): 7 ± 2 %ID/g
tissue uptake at 1 h (in vivo; lungs): 1.3 ± 0.1 %ID/g
tissue uptake at 2 h (in vivo; lungs): 1.5 ± 0.8 %ID/g
tissue uptake at 1 h (in vivo; muscle): 0.33 ± 0.04 %ID/g
tissue uptake at 2 h (in vivo; muscle): 0.3 ± 0.1 %ID/g
tissue uptake at 1 h (in vivo; pancreas): 16 ± 1 %ID/g
tissue uptake at 2 h (in vivo; pancreas): 17 ± 4 %ID/g
tissue uptake at 1 h (in vivo; small intestine): 6 ± 3 %ID/g
tissue uptake at 2 h (in vivo; small intestine): 4 ± 3 %ID/g
tissue uptake at 1 h (in vivo; spleen): 0.9 ± 0.2 %ID/g
tissue uptake at 2 h (in vivo; spleen): 0.8 ± 0.6 %ID/g
tissue uptake at 1 h (in vivo; tumour (PC-3 xenograft)): 2.4 ± 0.1 %ID/g
tissue uptake at 2 h (in vivo; tumour (PC-3 xenograft)): 2.7 ± 0.5 %ID/g
tissue to tissue ratio at 1 h (in vivo; tumour / blood): 0.97 ± 0.1
tissue to tissue ratio at 2 h (in vivo; tumour / blood): 1.5 ± 0.2
tissue to tissue ratio at 1 h (in vivo; tumour / bone): 3.2 ± 0.5
tissue to tissue ratio at 2 h (in vivo; tumour / bone): 5 ± 1
tissue to tissue ratio at 1 h (in vivo; tumour / kidneys): 0.99 ± 0.08
tissue to tissue ratio at 2 h (in vivo; tumour / kidneys): 1.6 ± 0.6
tissue to tissue ratio at 1 h (in vivo; tumour / liver): 0.2 ± 0.02
tissue to tissue ratio at 2 h (in vivo; tumour / liver): 0.4 ± 0.1
tissue to tissue ratio at 1 h (in vivo; tumour / lungs): 1.9 ± 0.1
tissue to tissue ratio at 2 h (in vivo; tumour / lungs): 2.2 ± 1
tissue to tissue ratio at 1 h (in vivo; tumour / muscle): 7.4 ± 0.7
tissue to tissue ratio at 2 h (in vivo; tumour / muscle): 12 ± 4
tissue to tissue ratio at 1 h (in vivo; tumour / pancreas): 0.15 ± 0.02
tissue to tissue ratio at 2 h (in vivo; tumour / pancreas): 0.17 ± 0.05
tissue to tissue ratio at 1 h (in vivo; tumour / small intestine): 0.5 ± 0.2
tissue to tissue ratio at 2 h (in vivo; tumour / small intestine): 0.7 ± 0.3
tissue to tissue ratio at 1 h (in vivo; tumour / spleen): 2.6 ± 0.5
tissue to tissue ratio at 2 h (in vivo; tumour / spleen): 4 ± 2
tissue uptake at 1 h (in vivo; tumour): 2.4 ± 0.1 %ID/g
tissue uptake dose at 0.5 h (in vivo; GI tract with content (whole intestine), 40 pmol): 38 ± 4 %ID
tissue uptake dose at 0.5 h (in vivo; GI tract with content): 32 ± 4 %ID
tissue uptake at 0.5 h (in vivo; blood, 40 pmol, activity uptake in blood, 40 pmol (30 kBq), non-blocked, mean ± SD, n = 3–4): 5 ± 1 %ID/g
tissue uptake at 0.5 h (in vivo; blood, activity uptake in blood, 40 pmol, blocked: co-injected with 5 nmol NOTA-PEG2-RM26, mean ± SD, n = 3): 4 ± 1 %ID/g
tissue uptake at 0.5 h (in vivo; bone, 40 pmol, activity uptake in bone, 40 pmol (30 kBq), non-blocked, mean ± SD, n = 3–4): 0.8 ± 0.1 %ID/g
tissue uptake at 0.5 h (in vivo; bone, activity uptake in bone, 40 pmol, blocked: co-injected with 5 nmol NOTA-PEG2-RM26, mean ± SD, n = 3): 0.7 ± 0.1 %ID/g
tissue uptake at 0.5 h (in vivo; kidneys, activity uptake in kidneys, 40 pmol, blocked: co-injected with 5 nmol NOTA-PEG2-RM26, mean ± SD, n = 3): 3.1 ± 0.6 %ID/g
tissue uptake at 0.5 h (in vivo; liver, 40 pmol, activity uptake in liver, 40 pmol (30 kBq), non-blocked, mean ± SD, n = 3–4): 12 ± 0.7 %ID/g
tissue uptake at 0.5 h (in vivo; liver, activity uptake in liver, 40 pmol, blocked: co-injected with 5 nmol NOTA-PEG2-RM26, mean ± SD, n = 3): 12 ± 2 %ID/g
tissue uptake dose at 0.5 h (in vivo; rest of the carcass, 40 pmol): 15 ± 2 %ID
tissue uptake dose at 0.5 h (in vivo; rest of the carcass): 16 ± 4 %ID
tissue uptake at 0.5 h (in vivo; spleen, 40 pmol, activity uptake in spleen, 40 pmol (30 kBq), non-blocked, mean ± SD, n = 3–4): 1.4 ± 0.1 %ID/g
tissue uptake at 0.5 h (in vivo; spleen, activity uptake in spleen, 40 pmol, blocked: co-injected with 5 nmol NOTA-PEG2-RM26, mean ± SD, n = 3): 0.9 ± 0.2 %ID/g
tissue uptake dose at 0.5 h (in vivo; whole body, 40 pmol): 84 ± 7 %ID
activity uptake in pancreas [3]: 4 ± 1 %IA/g
activity uptake in bone (NMRI mice; [4]): 0.8 ± 0.1 %IA/g
activity uptake in liver (NMRI mice; [4]): 12.0 ± 0.7 %IA/g
in vivo defluorination (stability of the fluorine-carbon bond) (NMRI mice; judged from bone uptake in the biological evaluation in mice): no significant signs of in vivo defluorination

Source: publication PMC11947346, “Synthesis and preclinical evaluation of gastrin releasing peptide receptor antagonist [^18F]MeTz-PEG2-RM26 for positron emission tomography” (EJNMMI Radiopharmacy and Chemistry, 2025)
